Assay results: patent EP3409761B1, “CULTURE MEDIUM COMPOSITION, AND METHOD FOR CULTURING CELL OR TISSUE USING SAID COMPOSITION” (Nissan Chemical Corporation, priority 2012, dated 2014)

What was measured:
Format in all cases: cell-based
[1] = tested on: human cervical cancer cell line HeLa; test: Cell proliferation test using various anticancer drugs; conditions: DAG 0.030% medium; for cell density: 5 days later
Procedure: This aqueous solution was sterilized at 121°C for 20 min in an autoclave. […] The anticancer drug used was Adriamycin (manufactured by WAKO), Paclitaxel (manufactured by WAKO) or Mitomycin C (manufactured by WAKO).
Successively, this plate was cultured by being stood still in a CO2 incubator (37°C, 5% CO2) for 7 days. After culturing for 3, 5, 7 days, to the culture medium was added a WST-8 solution (manufactured by DOJINDO Laboratories, 20 µL), and the mixture was incubated at 37°C for 100 min. The absorbance at 450 nm was measured by an absorbance spectrometer (manufactured by Molecular Devices, SPECTRA MAX 190), and the number of viable cells was measured by subtracting the absorbance of the medium alone. The culture medium containing the cells after 5 days of culture was stirred with a pipette and the obtained stirred solution (20 µL) was mixed with Trypan Blue stain 0.4% (manufactured by Invitrogen, 20 µL) and the cell density was measured under a microscope.

[2] = tested on: human cervical cancer cell line HeLa; test: Comparison with single layer culture method in cell proliferation test using anticancer drug; conditions: day 4
Procedure: This aqueous solution was sterilized at 121°C for 20 min in an autoclave. […] Each plate was cultured by being stood still in a CO2 incubator (37°C, 5% CO2). […] The anticancer drug used was Adriamycin (manufactured by WAKO), Paclitaxel (manufactured by WAKO) or Mitomycin C (manufactured by WAKO). To the culture medium on day 4 was added an ATP reagent (150 µL) (CellTiter-Glo (registered trade mark) Luminescent Cell Viability Assay, manufactured by Promega) to give a suspension, which was stood for about 10 min at room temperature, and the luminescence intensity (RLU value) was measured by FlexStation3 (manufactured by Molecular Devices), and the number of viable cells was measured by subtracting the luminescence value of the medium alone. For WST-8 measurement, a WST-8 solution (manufactured by DOJINDO Laboratories, 15 µL) was added, the mixture was incubated at 37°C for 100 min, the absorbance at 450 nm was measured by an absorbance spectrometer (manufactured by Molecular Devices, SPECTRA MAX 190), and the number of viable cells was measured by subtracting the absorbance of the medium alone.

[3] = tested on: human cervical cancer cell line HeLa; test: Comparison with single layer culture method using agent for inducing apoptosis; conditions: day 4
Procedure: This aqueous solution was sterilized at 121°C for 20 min in an autoclave. […] Each plate was cultured by being stood still in a CO2 incubator (37°C, 5% CO2). […] To the culture medium on day 4 was added an ATP reagent (150 µL) (CellTiter-Glo (registered trade mark) Luminescent Cell Viability Assay, manufactured by Promega) to give a suspension, which was stood for about 10 min at room temperature, and the luminescence intensity (RLU value) was measured by FlexStation3 (manufactured by Molecular Devices), and the number of viable cells was measured by subtracting the luminescence value of the medium alone. For WST-8 measurement, a WST-8 solution (manufactured by DOJINDO Laboratories, 15 µL) was added, the mixture was incubated at 37°C for 100 min, the absorbance at 450 nm was measured by an absorbance spectrometer (manufactured by Molecular Devices, SPECTRA MAX 190), and the number of viable cells was measured by subtracting the absorbance of the medium alone.

[4] = drug 0.005 µM, deacylated gellan gum addition group (0.015%)
[5] = drug 0.005 µM, single layer culture group
[6] = drug 0.05 µM, deacylated gellan gum addition group (0.015%)
[7] = drug 0.05 µM, single layer culture group
[8] = drug 0.5 µM, deacylated gellan gum addition group (0.015%)
[9] = drug 0.5 µM, single layer culture group
[10] = agent 1 µM, deacylated gellan gum addition group (0.015%)
[11] = agent 1 µM, single layer culture group
[12] = agent 10 µM, deacylated gellan gum addition group (0.015%)
[13] = agent 10 µM, single layer culture group
[14] = agent 0.2 µM, deacylated gellan gum addition group (0.015%)
[15] = agent 0.2 µM, single layer culture group
[16] = agent 2 µM, deacylated gellan gum addition group (0.015%)
[17] = agent 2 µM, single layer culture group

Question: For `CO[C@@]12[C@H](COC(N)=O)C3=C(C(=O)C(C)=C(N)C3=O)N1C[C@@H]1N[C@@H]12` [Mitomycin C], which cell density ([1]; drug 0.01 µM) is on record?
Answer: 1.0 10^4 cells/mL

Question: What about the “cell number (absorbance at 450 nm, WST-8)” value (from here on “cell number”) ([1]; drug 0.01 µM, day 3) of the same compound?
Answer: 0.089

Question: And the “cell number” value ([1]; drug 0.01 µM, day 5)?
Answer: 0.016

Question: What about the “cell number” value ([1]; drug 0.01 µM, day 7) of the same compound?
Answer: < 0

Question: What about the cell density ([1]; drug 0.1 µM) of the same compound?
Answer: 0.4 10^4 cells/mL

Question: What about the “cell number” value ([1]; drug 0.1 µM, day 3) of the same compound?
Answer: 0.032

Question: And the “cell number” value ([1]; drug 0.1 µM, day 5)?
Answer: < 0

Question: And the “cell number” value ([1]; drug 0.1 µM, day 7)?
Answer: < 0

Question: And the cell density ([1]; drug 1 µM)?
Answer: 0.1 10^4 cells/mL

Question: What about the “cell number” value ([1]; drug 1 µM, day 3) of the same compound?
Answer: < 0

Question: What about the “cell number” value ([1]; drug 1 µM, day 5) of the same compound?
Answer: < 0

Question: What about the “cell number” value ([1]; drug 1 µM, day 7) of the same compound?
Answer: < 0

Question: And the “% Control value of the RLU value (ATP measurement)” value (from here on “% Control value of the RLU value”) [2, 4]?
Answer: 83 % Control

Question: What about the “% Control value of the absorbance at 450 nm (WST-8 measurement)” value (shortened to “% Control value of the absorbance”) [2, 4] of the same compound?
Answer: 94 % Control

Question: And the “% Control value of the RLU value” value [2, 5]?
Answer: 99 % Control

Question: And the “% Control value of the absorbance” value [2, 5]?
Answer: 101 % Control

Question: And the “% Control value of the RLU value” value [2, 6]?
Answer: 48 % Control

Question: What about the “% Control value of the absorbance” value [2, 6] of the same compound?
Answer: 37 % Control

Question: What about the “% Control value of the RLU value” value [2, 7] of the same compound?
Answer: 89 % Control

Question: And the “% Control value of the absorbance” value [2, 7]?
Answer: 83 % Control

Question: And the “% Control value of the RLU value” value [2, 8]?
Answer: 29 % Control

Question: And the “% Control value of the absorbance” value [2, 8]?
Answer: 12 % Control

Question: And the “% Control value of the RLU value” value [2, 9]?
Answer: 86 % Control

Question: And the “% Control value of the absorbance” value [2, 9]?
Answer: 71 % Control

Question: For `C[C@@H]1C[C@H]2[C@@H]3CCC4=CC(=O)C=C[C@]4(C)[C@@]3(F)[C@@H](O)C[C@]2(C)[C@@]1(O)C(=O)CO` [Dexamethasone], which “% Control value of the RLU value” value [3, 10] is on record?
Answer: 232 % Control

Question: And the “% Control value of the absorbance” value [3, 10]?
Answer: 184 % Control

Question: What about the “% Control value of the absorbance” value [3, 11] of the same compound?
Answer: 89 % Control

Question: And the “% Control value of the RLU value” value [3, 12]?
Answer: 241 % Control

Question: And the “% Control value of the absorbance” value [3, 12]?
Answer: 173 % Control

Question: And the “% Control value of the RLU value” value [3, 13]?
Answer: 116 % Control

Question: What about the “% Control value of the absorbance” value [3, 13] of the same compound?
Answer: 92 % Control

Question: `CC[C@@]1(O)C(=O)OCc2c1cc1n(c2=O)Cc2cc3ccccc3nc2-1` [Camptothecin] was tested. Which “% Control value of the RLU value” value [3, 14] did it give?
Answer: 27 % Control

Question: What about the “% Control value of the absorbance” value [3, 14] of the same compound?
Answer: 24 % Control

Question: What about the “% Control value of the RLU value” value [3, 15] of the same compound?
Answer: 63 % Control

Question: What about the “% Control value of the absorbance” value [3, 15] of the same compound?
Answer: 68 % Control

Question: And the “% Control value of the RLU value” value [3, 16]?
Answer: 11 % Control

Question: And the “% Control value of the absorbance” value [3, 16]?
Answer: 7 % Control

Question: And the “% Control value of the RLU value” value [3, 17]?
Answer: 44 % Control

Question: What about the “% Control value of the absorbance” value [3, 17] of the same compound?
Answer: 28 % Control

Question: `COc1cc([C@@H]2c3cc4c(cc3[C@@H](O[C@@H]3O[C@@H]5CO[C@@H](C)O[C@H]5[C@H](O)[C@H]3O)[C@H]3COC(=O)[C@H]23)OCO4)cc(OC)c1O` [Etoposide] was tested. Which “% Control value of the RLU value” value [3, 10] did it give?
Answer: 35 % Control

Question: And the “% Control value of the absorbance” value [3, 10]?
Answer: 39 % Control

Question: And the “% Control value of the RLU value” value [3, 11]?
Answer: 64 % Control

Question: What about the “% Control value of the absorbance” value [3, 11] of the same compound?
Answer: 68 % Control

Question: And the “% Control value of the RLU value” value [3, 12]?
Answer: 24 % Control

Question: What about the “% Control value of the absorbance” value [3, 12] of the same compound?
Answer: 23 % Control

Question: And the “% Control value of the RLU value” value [3, 13]?
Answer: 65 % Control

Question: What about the “% Control value of the absorbance” value [3, 13] of the same compound?
Answer: 63 % Control
